Test: Migration test (paper chromatography)
Format: physicochemical
Conditions: Wattmann 1-CHR paper, eluent cyclohexane/toluene 50 wt %/50 wt %, judged qualitatively (FIG. 5)
Description: A chromatography test is performed to provide an (comparative) indication of migration of a colorant on a print substrate. For this, solutions of the colorants to be tested, in dichloromethane are prepared. The prepared solutions contain substantially equal concentrations of colorant. For the purpose of the present invention, the eluent solution consists of a cyclohexane/toluene mixture (50 wt %/50 wt %). A sheet of Wattmann 1-CHR paper is used as a substrate. At about 1 cm from the bottom edge of the paper sheet dots of equal size of the colorant solutions are made (by using a pipette). Each dot is positioned at substantially the same distance from the bottom edge of the paper sheet. Then the sheet is left to dry. A beaker is filled with eluent solution such that the level of eluent solution is less than 1 cm. The dried test sample (paper sheet provided with colorant dots) is placed in the beaker such that the lower edge of the paper sheet touches the bottom of the beaker. Due to capillary flow the eluent solution will flow upward in the paper sheet. This set up is left to stand until the wetted height of paper sheet is at least 1.5 times the height to which the most soluble colorant rises. The results are judged qualitatively. If the colorant dot remains at the starting position, migration is not likely to occur. […]

migration of colorant on paper substrate: significant migration
SMILES: Cn1c(=O)cc2c3c(c(NC4CCCCC4)ccc31)C(=O)c1ccccc1-2 [SR149]
